From ChEMBL document CHEMBL4699557, “Structure activity relationship of novel antiviral nucleosides against Enterovirus A71” (Bioorg Med Chem Lett, 2020)

Tests used:
[1] = in vitro; details: monkey, Vero 76 cells
[2] = tested on: Enterovirus A71; experiment: microbe, parasite or virus in culture; assay type: functional, organism-based; details: Enterovirus A, Tainin/4643/98, Vero 76, 72 h
[3] = tested on: Vero 76; experiment: Cytotoxicity against monkey Vero 76 cells by neutral red uptake assay; assay type: cell-based; details: chlorocebus sabaeus, vero 76
[4] = tested on: Enterovirus A71; experiment: microbe, parasite or virus in culture; assay type: functional, organism-based, Tainin/4643/98, Vero 76; details: Enterovirus A, Tainin/4643/98, Vero 76, 72 h
[5] = in vitro; details: monkey, Vero 76 cells; remark: listed apart in the source
[6] = tested on: Vero 76; experiment: Cytotoxicity against monkey Vero 76 cells by microscopic analysis; assay type: cell-based; details: chlorocebus sabaeus, vero 76

Compound | selectivity ratio [1] | EC50 [2] | CC50 [3] | EC50 [4] | selectivity ratio [5] | CC50 [6]
O[C@@H]1[C@H](O)[C@@H]2C[C@@H]2[C@H]1n1cnc2c(N[C@H](CC3CC3)C3CC3)nc(Cl)nc21 | > 2.4 | 8.1 µM | 9.9 µM | 21 µM | 1.2 | 
CCOC(=O)c1ccc(OCCC2CCN(c3ccc(C)nn3)CC2)cc1 [PIRODAVIR] | > 31 | 0.57 µM | 17 µM | 0.86 µM | 30 | > 27 µM
OC[C@@]12C[C@@H]1[C@@H](n1cnc3c(N[C@@H](C4CCC4)C4CC4)nc(Cl)nc31)[C@H](O)[C@@H]2O | > 3.1 | 8 µM | 13 µM | 16 µM | 1.6 | 
OC[C@@]12C[C@@H]1[C@@H](n1cnc3c(N[C@H](C4CCC4)C4CC4)nc(Cl)nc31)[C@H](O)[C@@H]2O | > 3.1 | 9.3 µM | 14 µM | 16 µM | 1.5 | > 50 µM
CSc1nc(N[C@H](C(C)C)C2CC2)c2ncn([C@H]3[C@H](O)[C@H](O)[C@]4(CO)C[C@H]34)c2n1 |  | 66 µM | > 100 µM |  | > 1.5 | > 100 µM
CC[C@@H](Nc1nc(SC)nc2c1ccn2[C@H]1[C@H](O)[C@H](O)[C@]2(CO)C[C@H]12)C1CC1 | > 3.1 | 2.3 µM | > 50 µM |  | > 22 | > 50 µM
O[C@@H]1[C@H](O)[C@@H]2C[C@@H]2[C@H]1n1cnc2c(N[C@@H](CC3CC3)C3CC3)nc(Cl)nc21 | > 2.8 | > 7.6 µM | 7.6 µM | 18 µM |  | > 50 µM
CSC[C@@]12C[C@@H]1[C@@H](n1cnc3c(N[C@H](C(C)C)C4CC4)nc(Cl)nc31)[C@H](O)[C@@H]2O |  | 8.4 µM | 32 µM | > 32 µM | 3.8 | 32 µM
OC[C@@]12C[C@@H]1[C@@H](n1cnc3c(NC(C4CCC4)C4CCC4)nc(Cl)nc31)[C@H](O)[C@@H]2O | 3.1 | > 28 µM | 28 µM | 16 µM |  | 50 µM
COC(=O)c1cnn(-c2nc(NC(C3CC3)C3CC3)c3ncn([C@H]4[C@H](O)[C@H](O)[C@@H]5C[C@@H]54)c3n2)c1 |  | > 50 µM | 50 µM | > 50 µM |  | > 50 µM
NNc1nc(NC(C2CC2)C2CC2)c2ncn([C@H]3[C@H](O)[C@H](O)[C@@H]4C[C@@H]43)c2n1 |  | > 50 µM | 50 µM | > 50 µM |  | > 50 µM
CC[C@H](Nc1nc(Cl)nc2c1ncn2[C@H]1[C@H](O)[C@H](O)[C@]2(CO)C[C@H]12)C1CC1 | > 3.1 | 5.3 µM | > 50 µM |  | > 9.4 | > 50 µM
O[C@@H]1[C@H](O)[C@@H]2C[C@@H]2[C@H]1n1ccc2c(NC(C3CC3)C3CC3)nc(I)nc21 |  | 32 µM | 44 µM | > 100 µM | 1.4 | 100 µM
OC[C@H]1O[C@@H](n2cnc3c(NC(C4CCC4)C4CCC4)nc(Cl)nc32)[C@H](O)[C@@H]1O |  | > 27 µM | 27 µM | > 32 µM |  | 32 µM
CC(C)[C@@H](Nc1nc(Cl)nc2c1ncn2[C@H]1[C@H](O)[C@H](O)[C@]2(CN)C[C@H]12)C1CC1 |  | > 32 µM | 32 µM | > 32 µM |  | 32 µM
O[C@@H]1[C@H](O)[C@@H]2C[C@@H]2[C@H]1n1cnc2c(NC(C3CC3)C3CC3)ncnc21 |  | > 50 µM | > 50 µM | > 50 µM |  | > 50 µM
CC(C)(C)[C@H](Nc1nc(Cl)nc2c1ncn2[C@H]1[C@H](O)[C@H](O)[C@]2(CO)C[C@H]12)C1CC1 |  | 31 µM | > 100 µM | 32 µM |  | > 100 µM
